Measured values published in patent publication US5773423A (priority 1994, dated 1998).
Structures can show the parent of a compound that is named as a salt. Where two headings read alike, the source gives them in different places.

Assays:
[1] = molecular target: T1, A2 receptors from rat striatal membranes (Rattus norvegicus, UniProt P30543); assay: Radioligand binding at A2 (A2a) receptors, displacement of [3H]CGS 21680 (or [3H]NECA with 50 nM CPA) from rat striatal membranes
T1 construct: Rat cerebral cortical and striatal membranes were prepared; from tissue; host or cells: rat striatal membranes

[2] = molecular target: T2, A1 receptors from rat brain membranes (Rattus norvegicus, UniProt P25099); assay: biochemical; type: binding; settings: for inhibition at 100 µM: read-out: A1 percent displacement
T2 construct: Rat cerebral cortical and striatal membranes were prepared; from tissue; host or cells: rat brain (cerebral cortical) membranes
T2 sequence (P25099 1-326): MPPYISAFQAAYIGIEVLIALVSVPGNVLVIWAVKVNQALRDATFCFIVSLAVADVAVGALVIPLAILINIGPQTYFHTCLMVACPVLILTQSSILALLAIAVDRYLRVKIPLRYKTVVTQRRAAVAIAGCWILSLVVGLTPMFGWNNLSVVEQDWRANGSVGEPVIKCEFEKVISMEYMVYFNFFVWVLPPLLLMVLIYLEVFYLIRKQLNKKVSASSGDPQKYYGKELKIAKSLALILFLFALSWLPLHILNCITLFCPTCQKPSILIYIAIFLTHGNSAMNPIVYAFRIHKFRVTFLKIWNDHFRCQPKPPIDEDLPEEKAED

[3] = rat striatal membranes, displacement of [3H]CGS 21680 (or [3H]NECA + 50 nM CPA), read-out: A2 affinity Ki
[4] = read-out: A2 percent displacement
[5] = rat brain membranes, displacement of [3H]PIA (or [3H]CHA), read-out: A1 affinity Ki
[6] = read-out: percent displacement of radioligand at A2

T1 sequence (P30543 whole entry): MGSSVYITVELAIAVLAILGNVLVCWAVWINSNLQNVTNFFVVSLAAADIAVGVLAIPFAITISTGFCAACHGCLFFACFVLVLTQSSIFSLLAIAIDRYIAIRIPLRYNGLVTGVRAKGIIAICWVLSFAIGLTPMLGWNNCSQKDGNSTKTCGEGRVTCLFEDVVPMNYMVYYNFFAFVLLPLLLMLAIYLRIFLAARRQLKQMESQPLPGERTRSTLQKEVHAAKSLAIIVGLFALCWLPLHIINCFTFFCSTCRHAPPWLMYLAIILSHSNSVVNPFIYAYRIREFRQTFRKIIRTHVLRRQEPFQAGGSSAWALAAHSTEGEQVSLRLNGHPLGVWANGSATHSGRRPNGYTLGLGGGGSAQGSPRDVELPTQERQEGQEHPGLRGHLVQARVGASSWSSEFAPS

SMILES | Ki [1, 3] [nM] | Ki [2, 5] [nM] | other results
CCCCn1c(=O)c2c(ncn2[C@@H]2O[C@H](C(N)=O)[C@@H](O)[C@H]2O)n(CCCC)c1=O | – | – | A2a affinity decrease vs 1,3-di-n-butylxanthine-7-β-D-ribofuranoside [1]: 2.8 fold
CCCCCC[C@H]([C@H](C)O)n1cnc2c(N)ncnc21 (relative stereo) [Compound 96, erythro-9-(2-hydroxy-3-nonyl)adenine, reference compound] | – | – | inhibition at 100 µM ([1]; at 100 μM, read-out: A2 percent displacement): 59.6 ± 2.8%
Nc1ccc(CCNc2ncnc3c2ncn3[C@@H]2O[C@H](CO)[C@@H](O)[C@H]2O)cc1 [APNEA, N^6-2-(4-aminophenyl)ethyladenosine, reference compound] | – | – | Ki ([1]; Table 2, [3H]CGS 21680, rat striatal membranes, read-out: Ki (A2)): 172 ± 50 nM; A1 selectivity [2]: 8 fold
O=C(NC1CC1)[C@H]1O[C@@H](n2cnc3c(NCc4ccccc4)ncnc32)[C@H](O)[C@@H]1O [Compound 24, N^6-benzyladenosine-5'-N-cyclopropyluronamide] | 55 ± 6 | – | –
NCCNC(=O)[C@H]1O[C@@H](n2cnc3c(N)ncnc32)[C@H](O)[C@@H]1O [Compound 25, 5'-N-aminoethylaminocarboxamidoadenosine] | – | – | inhibition at 100 µM [1, 4]: 12.5%; inhibition at 100 µM [2]: 0%
CC(C)(C)OC(=O)NCCNC(=O)[C@H]1O[C@@H](n2cnc3c(N)ncnc32)[C@H](O)[C@@H]1O [Compound 26, 5'-N-boc-aminoethylaminocarboxamidoadenosine] | – | – | inhibition at 100 µM [1, 4]: 0%; inhibition at 100 µM ([2]; at 100 μM): 0%
CN(Cc1ccccc1)c1ncnc2c1ncn2[C@@H]1O[C@H](CO)[C@@H](O)[C@H]1O [Compound 30, N^6 -benzyl-N^6 -methyladenosine, reference compound] | 40100 | 7600 | –
Nc1ncnc2c1nc(Br)n2[C@@H]1O[C@H](CO)[C@@H](O)[C@H]1O [Compound 31, 8-bromoadenosine, reference compound] | 22700 | – | inhibition at 100 µM [2]: 41.5 ± 3.2%
Nc1nccc2c1ncn2[C@@H]1O[C@H](CO)[C@@H](O)[C@H]1O [Compound 32, 3-deazaadenosine, reference compound] | 59800 | – | –
Nc1c2ncn([C@@H]3O[C@H](CO)[C@@H](O)[C@H]3O)c2nc[n+]1[O-] [Compound 34, adenosine-N^1 -oxide, reference compound] | 328 ± 60 | – | Ki [2]: 246 ± 31 nM
CCNC(=O)[C@H]1O[C@@H](n2cnc3c(N)[n+]([O-])cnc32)[C@H](O)[C@@H]1O [Compound 35, adenosine-5'-N-ethyluronamide-N^1-oxide] | 101 ± 19 | – | –
[O-][n+]1cnc2c(ncn2[C@@H]2O[C@H](CO)[C@@H](O)[C@H]2O)c1NCc1ccccc1 [Compound 36, N^6 -benzyladenosine-N^1 -oxide] | 8530 | 864 ± 88 | –
CCNC(=O)[C@H]1O[C@@H](n2cnc3c(=N)n(Cc4ccc([N+](=O)[O-])cc4)cnc32)[C@H](O)[C@@H]1O [Compound 37] | 190 ± 52 | 341 ± 52 | –
CCNC(=O)[C@H]1O[C@@H](n2cnc3c(=N)n(Cc4ccccc4[N+](=O)[O-])cnc32)[C@H](O)[C@@H]1O [Compound 38, N'-(2-nitrobenzyl)NECA] | 83.5 ± 9.5 | 196 ± 52 | –
NC(=O)[C@H]1O[C@@H](n2cnc3c(NCc4ccccc4)ncnc32)[C@H](O)[C@@H]1O [Compound 39, N^6-benzyl-5'-carboxamidoadenosine] | 423 ± 46 | 580 ± 99 | –
CNC(=O)[C@H]1O[C@@H](n2cnc3c(NCc4ccccc4)ncnc32)[C@H](O)[C@@H]1O [Compound 40, N^6-benzyladenosine-5'-N-methyluronamide] | 597 ± 42 | 898 ± 124 | –
CNC(=O)[C@H]1O[C@@H](n2cnc3c(NCc4cccc(Br)c4)ncnc32)[C@H](O)[C@@H]1O [Compound 41, N^6-(3-bromobenzyl)-NMCA] | 64 ± 9 | 65 ± 2 | –
CNC(=O)[C@H]1O[C@@H](n2cnc3c(NCc4cccc([N+](=O)[O-])c4)ncnc32)[C@H](O)[C@@H]1O [Compound 43, N^6-(3-nitrobenzyl)-NMCA] | 441 ± 45 | – | –

SMILES | Ki [1, 3] [nM] | Ki [2, 5] [nM] | other results
CNC(=O)[C@H]1O[C@@H](n2cnc3c(NCc4cccc(N)c4)ncnc32)[C@H](O)[C@@H]1O [Compound 44, N^6-(3-aminobenzyl)adenosine-5'-N-methyluronamide] | 794 ± 118 | – | –
CNC(=O)[C@H]1O[C@@H](n2cnc3c(NCc4cccc(NC(C)=O)c4)ncnc32)[C@H](O)[C@@H]1O [Compound 45, N^6-(3-acetamidobenzyl)-NMCA] | – | 7370 | inhibition at 100 µM [1, 4]: 12.5 ± 1.9%
CNC(=O)[C@H]1O[C@@H](n2cnc3c(NCc4cccc(C)c4)ncnc32)[C@H](O)[C@@H]1O [Compound 46, N^6-(3-methylbenzyl)-NMCA] | 415 ± 33 | 322 ± 23 | –
CNC(=O)[C@H]1O[C@@H](n2cnc3c(NCc4cccc(C(F)(F)F)c4)ncnc32)[C@H](O)[C@@H]1O [Compound 47, N^6-(3-trifluoromethylbenzyl)adenosine-5'-N-methyluronamide] | 574 ± 49 | – | –
CNC(=O)[C@H]1O[C@@H](n2cnc3c(NCc4ccc(Cl)cc4)ncnc32)[C@H](O)[C@@H]1O [Compound 48, N^6-(4-chlorobenzyl)-NMCA] | 2730 | – | –
CNC(=O)[C@H]1O[C@@H](n2cnc3c(NCc4ccc(Br)cc4)ncnc32)[C@H](O)[C@@H]1O [Compound 49, N^6-(4-bromobenzyl)-NMCA] | 2460 | – | –
CNC(=O)[C@H]1O[C@@H](n2cnc3c(NCc4ccc(N)cc4)ncnc32)[C@H](O)[C@@H]1O [Compound 50, N^6-(4-aminobenzyl)-NMCA] | 1590 | 431 ± 45 | –
CNC(=O)[C@H]1O[C@@H](n2cnc3c(NCc4ccc(N)c(I)c4)ncnc32)[C@H](O)[C@@H]1O [Compound 51, N^6-(4-amino-3-iodobenzyl)adenosine-5'-N-methyluronamide] | 316 ± 43 | – | displacement of radioligand from A2a (in words) [1]: not A1 or A2a receptors
CNC(=O)[C@H]1O[C@@H](n2cnc3c(NCc4cccc(S(=O)(=O)O)c4)ncnc32)[C@H](O)[C@@H]1O [Compound 52, N^6-(3-sulfobenzyl)-NMCA triethylammonium salt] | > 10000 | > 10000 | –
CNC(=O)[C@H]1O[C@@H](n2cnc3c(NCc4ccc(S(=O)(=O)O)cc4)ncnc32)[C@H](O)[C@@H]1O [Compound 53, N^6-(4-sulfobenzyl)adenosine-5'-N-methyluronamide triethylammonium salt] | – | – | inhibition at 100 µM [1, 4]: 0%; inhibition at 100 µM ([2]; at 100 μM): 0%
Cn1c(=O)[nH]c(=O)c2[nH]cnc21 [Compound 100, 3-methylX, reference compound] | – | – | inhibition at 100 µM [1, 4]: 38 ± 0.9%
O=c1c2[nH]cnc2n(Cc2ccccc2)c(=O)n1Cc1ccccc1 [Compound 111, 1,3-dibenzylX, reference compound] | – | – | inhibition at 10 µM ([1]; at 10 μM, read-out: A2 percent displacement): 3.61 ± 0.94%
Cn1c(=O)c2ncn(C)c2n(C)c1=O [Compound 113, 1,3,9-trimethylX, reference compound] | – | – | inhibition at 100 µM [1, 4]: 14.4 ± 5.7%
CCCCn1c(=O)c2c(ncn2[C@@H]2O[C@H](C(=O)NC)[C@@H](O)[C@H]2O)n(CCCC)c1=O [Compound 124, N-methyl 1,3-di-n-butylxanthine-7-β-D-ribofuronamide] | – | – | inhibition at 100 µM [2]: 30%
CCCCCCn1c(=O)c2c(ncn2[C@@H]2O[C@H](CO)[C@@H](O)[C@H]2O)n(CCCCCC)c1=O [Example 64, 1,3-di-n-hexylxanthine-7-β-D-ribofuranoside] | – | – | inhibition at 10 µM [1, 6]: 7.8%; inhibition at 100 µM [1, 6]: 69 ± 2%
CCCCCn1c(=O)c2c(ncn2[C@@H]2O[C@H](C(=O)NC)[C@@H](O)[C@H]2O)n(CCCCC)c1=O [Example 68, N-methyl 1,3-di-n-pentylxanthine-7-β-D-ribofuronamide] | – | – | inhibition at 100 µM [1, 6]: 2%
CCCCCCn1c(=O)c2c(ncn2[C@@H]2O[C@H](C(=O)NC)[C@@H](O)[C@H]2O)n(CCCCCC)c1=O [Example 69, N-methyl 1,3-di-n-hexylxanthine-7-β-D-ribofuronamide] | – | – | inhibition at 100 µM ([1]; Table 4, at 10^-4 M, read-out: percent displacement of radioligand at A2): 0%

More lines, main results first:

Ki [1, 3] [nM] | Ki [2, 5] [nM] | SMILES | other results
259 ± 15 | 3.2 ± 0.1 | CCNC(=O)[C@H]1O[C@@H](n2cnc3c(N[C@H](C)c4ccccc4)ncnc32)[C@H](O)[C@@H]1O [Compound 55, N^6 -(R-phenylethyl)-NECA] | –
1650 | – | CCNC(=O)[C@H]1O[C@@H](n2cnc3c(N[C@@H](C)c4ccccc4)ncnc32)[C@H](O)[C@@H]1O [Compound 56, N^6 -(S-phenylethyl)-NECA] | –
32 ± 4 | 51 ± 7 | CCNC(=O)[C@H]1O[C@@H](n2cnc3c(NCc4cccc(F)c4)ncnc32)[C@H](O)[C@@H]1O [Compound 57, N^6-(3-fluorobenzyl)adenosine-5'-N-ethyluronamide] | –
19 ± 0.3 | 22 ± 3 | CCNC(=O)[C@H]1O[C@@H](n2cnc3c(NCc4cccc(Cl)c4)ncnc32)[C@H](O)[C@@H]1O [Compound 58, N^6-(3-chlorobenzyl)adenosine-5'-N-ethyluronamide] | –
– | 42700 | NC[C@H]1O[C@@H](n2cnc3c(N)ncnc32)[C@H](O)[C@@H]1O [Compound 74, 5'-deoxy-5'-aminoadenosine, reference compound] | –
2930 | – | CCCCn1c(=O)c2[nH]cnc2n(CCCC)c1=O [Compound 109, 1,3-di-n-butyl-xanthine, reference compound] | –
17400 | – | Cn1c(=O)c2c(ncn2CCO)n(C)c1=O [Compound 116, 7-β-hydroxyethylT, reference compound] | –
